# How the values were obtained:
# synthase I [1] = conditions: cited from earlier work
# synthase II [2] = conditions: cited from earlier work
# synthase II [3] = test: Cerulenin sensitivity of synthase II fraction from cellulose phosphate; format: biochemical, S. oleracea; conditions: 5 μM cerulenin, 15 minutes, room temperature
# Experimental: (§1) Each enzyme source is incubated with 5 μM cerulenin for 15 minutes at room temperature before being assayed with each of the acyl-ACP substrates. After incubation with cerulenin, the decanoyl-ACP activity is reduced 99% in the cellulose phosphate flow-through fraction and only 69% in the synthase II fraction. The palmitoyl-ACP activity in the synthase II fraction is not inhibited by the cerulenin treatment.
# synthase II [4] = biological target: T1, synthase II (Arabidopsis thaliana, UniProt Q9C9P4); test: Inhibition with cerulenin; format: biochemical
# T1 sequence (Q9C9P4 104-541): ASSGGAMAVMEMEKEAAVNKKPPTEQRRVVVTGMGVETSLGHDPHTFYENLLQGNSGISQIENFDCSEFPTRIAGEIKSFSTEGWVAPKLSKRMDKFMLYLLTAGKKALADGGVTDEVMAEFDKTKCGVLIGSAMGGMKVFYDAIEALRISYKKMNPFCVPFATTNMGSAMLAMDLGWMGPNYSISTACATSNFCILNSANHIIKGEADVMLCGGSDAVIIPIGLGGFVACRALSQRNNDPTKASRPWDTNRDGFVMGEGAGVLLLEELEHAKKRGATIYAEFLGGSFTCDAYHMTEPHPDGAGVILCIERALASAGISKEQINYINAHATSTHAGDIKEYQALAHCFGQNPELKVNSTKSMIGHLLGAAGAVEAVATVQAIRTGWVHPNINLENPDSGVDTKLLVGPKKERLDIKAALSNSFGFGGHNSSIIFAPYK
# Text: (§2) Other plant synthases may also find applicability by this invention, including synthase III type activities. Differences between synthases I, II, and III are also observed in inhibition with cerulenin. […] In FIG. 1, a time course assay of cerulenin effects on synthase I and synthase II activities is provided.
# synthase III = biological target: T2, synthase III (Arabidopsis thaliana, UniProt P49243); test: Inhibition with cerulenin; format: biochemical
# T2 sequence (P49243 44-404): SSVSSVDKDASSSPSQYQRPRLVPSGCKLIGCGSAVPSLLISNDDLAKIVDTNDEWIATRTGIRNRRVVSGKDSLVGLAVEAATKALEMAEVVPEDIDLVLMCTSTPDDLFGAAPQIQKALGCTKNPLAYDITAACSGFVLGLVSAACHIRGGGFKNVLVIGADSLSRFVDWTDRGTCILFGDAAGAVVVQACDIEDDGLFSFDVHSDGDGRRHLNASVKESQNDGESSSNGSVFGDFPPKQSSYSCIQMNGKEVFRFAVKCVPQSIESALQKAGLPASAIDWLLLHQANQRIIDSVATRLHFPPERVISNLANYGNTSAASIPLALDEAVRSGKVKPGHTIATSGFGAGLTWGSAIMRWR
# Text: as §2
# Synthase I [5] = biological target: T3, Synthase I (Arabidopsis thaliana, UniProt P52410); test: Inhibition with cerulenin; format: biochemical
# T3 sequence (P52410 47-473): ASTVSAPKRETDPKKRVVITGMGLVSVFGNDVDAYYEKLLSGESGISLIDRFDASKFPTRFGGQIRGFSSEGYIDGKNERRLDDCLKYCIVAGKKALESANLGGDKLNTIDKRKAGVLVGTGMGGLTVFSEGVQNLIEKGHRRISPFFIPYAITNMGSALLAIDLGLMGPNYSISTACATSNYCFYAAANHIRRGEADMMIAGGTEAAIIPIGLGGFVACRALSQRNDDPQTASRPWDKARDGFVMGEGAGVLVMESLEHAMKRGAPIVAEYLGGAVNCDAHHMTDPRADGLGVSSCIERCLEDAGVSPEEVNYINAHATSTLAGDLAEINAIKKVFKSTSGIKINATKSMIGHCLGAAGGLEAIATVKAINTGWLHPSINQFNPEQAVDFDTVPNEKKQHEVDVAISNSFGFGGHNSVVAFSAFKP
# Text: as §2
# type-II synthase = biological target: T4, type-II synthase (Ricinus communis, UniProt Q41134); format: biochemical, R. communis
# T4 construct: mature plastid protein
# T4 sequence (Q41134 117-535): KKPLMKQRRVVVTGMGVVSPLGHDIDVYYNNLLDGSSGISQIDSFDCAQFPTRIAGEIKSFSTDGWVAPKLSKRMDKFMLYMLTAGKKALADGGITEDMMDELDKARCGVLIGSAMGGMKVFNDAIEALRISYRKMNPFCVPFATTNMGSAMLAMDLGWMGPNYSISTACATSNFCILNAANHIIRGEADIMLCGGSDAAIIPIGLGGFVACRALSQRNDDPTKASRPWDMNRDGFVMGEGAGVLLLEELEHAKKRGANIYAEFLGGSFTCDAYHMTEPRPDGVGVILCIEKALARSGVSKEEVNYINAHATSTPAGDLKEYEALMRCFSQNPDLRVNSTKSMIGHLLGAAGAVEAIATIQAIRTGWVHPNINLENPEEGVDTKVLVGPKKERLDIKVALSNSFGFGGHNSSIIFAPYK
# type-I synthase = biological target: T5, type-I synthase (Ricinus communis, UniProt Q41135); test: biochemical; parameters: species or system R. communis
# T5 construct: mature plastid protein
# T5 sequence (Q41135 43-469): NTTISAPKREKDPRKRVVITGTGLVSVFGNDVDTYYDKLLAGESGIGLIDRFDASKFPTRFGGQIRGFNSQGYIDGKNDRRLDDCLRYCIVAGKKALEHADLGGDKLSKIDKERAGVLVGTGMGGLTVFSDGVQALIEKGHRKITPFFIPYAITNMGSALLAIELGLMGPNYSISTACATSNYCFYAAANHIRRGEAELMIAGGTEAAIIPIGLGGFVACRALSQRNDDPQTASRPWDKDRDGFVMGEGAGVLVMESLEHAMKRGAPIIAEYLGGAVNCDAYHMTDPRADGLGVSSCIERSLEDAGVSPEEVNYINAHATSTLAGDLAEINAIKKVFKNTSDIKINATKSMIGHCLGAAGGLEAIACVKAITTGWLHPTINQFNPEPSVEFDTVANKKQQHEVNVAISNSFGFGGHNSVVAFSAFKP
# synthase I [6] = test system: T6, synthase I; test: Cerulenin sensitivity of cellulose phosphate flow-through fraction; format: biochemical, S. oleracea; conditions: 0.25 h, 5 μM cerulenin, 15 minutes, room temperature, read-out: reduction of decanoyl-ACP activity
# T6 construct: from tissue; host or cells: S. oleracea leaf, cellulose phosphate flow-through
# Experimental: as §1
# [7] = cerulenin concentrations above 50 μM
structure (smiles),measurement,setting,value
C/C=C/C/C=C/CCC(=O)[C@H]1O[C@H]1C(N)=O [cerulenin],reaction with active site of synthase I,synthase I [1]; 5 μM cerulenin,reacts readily
same,reaction with synthase I,synthase I [1]; [7],react readily
same,reaction with active site of synthase II,synthase II [2]; 5 μM cerulenin,not synthase II
same,reaction with synthase II,synthase II [2]; [7],react readily
same,inhibition of palmitoyl-ACP activity,synthase II [3],not inhibited
same,reduction of decanoyl-ACP activity,synthase II [3],69%
same,sensitivity of synthase II to cerulenin,synthase II [4],less sensitive
same,sensitivity of synthase III to cerulenin,synthase III,least sensitive
same,sensitivity of synthase I to cerulenin,Synthase I [5],most sensitive
same,sensitivity of activity with C16:0-ACP (type-II synthase) to cerulenin,type-II synthase,virtually insensitive
same,inactivation of type-I synthase,type-I synthase,completely inactivated
same,inhibition at 5 µM,type-I synthase; read-out: inhibition of activity with C10:0-ACP,> 80%
same,inhibition at 5 µM,synthase I [6],99%

# Source: US5510255A, “Plant fatty acid synthases” (priority 1993, dated 1996)
